{"source": "patent US8512751B2", "about": "“Pharmaceutical compositions for sleep disorders” (Collegium Pharmaceutical, Inc., priority 2004, dated 2013)", "origin": "cited, not measured here", "key": {"[1]": {"conditions": "water and normal saline"}, "[2]": {"test_system": "sleep apnea", "conditions": "for effect in individuals with sleep apnea: patients, literature"}, "[3]": {"test_system": "serotonin uptake", "conditions": "animal models"}, "[4]": {"test_system": "sleep apnea", "conditions": "animal model of sleep apnea"}, "[5]": {"test_system": "EOG and EMG activity"}, "[6]": {"conditions": "man, single oral 40-mg dose"}, "[7]": {"test_system": "nocturnal sleep", "conditions": "healthy adults; 20, 40 and 60 mg"}, "[8]": {"conditions": "in vivo"}}, "note": "Structures can show the parent of a compound that is named as a salt.", "data": [{"compound": "Cc1nccn1CC1CCc2c(c3ccccc3n2C)C1=O", "note": "(racemic) [Ondansetron HCl dihydrate, (±) 1,2,3,9-tetrahydro-9-methyl-3-[(2-methyl-1H-imidazol-1-yl)methyl]-4H-carbazol-4-one, monohydrochloride, dihydrate]", "values": [{"measurement": "solubility", "setting": "[1]", "result": "soluble in water and normal saline"}]}, {"compound": "Cc1nccn1CC1CCc2c(c3ccccc3n2C)C1=O", "note": "(stereo not drawn) [Ondansetron]", "values": [{"measurement": "Bioavailability, effect of antacids", "setting": "antacids", "result": "unaffected"}, {"measurement": "Mean bioavailability", "setting": "healthy subjects, single 8-mg tablet", "result": "approximately 56%"}, {"measurement": "radiolabeled dose recovered from the urine as the parent compound", "setting": "humans", "result": "approximately 5%"}, {"measurement": "AUC from a 16-mg tablet greater than predicted from an 8-mg tablet dose", "setting": "oral tablets", "result": 24, "unit": "%"}, {"measurement": "half-life", "setting": "plasma, humans", "result": "3 to 5", "unit": "h"}, {"measurement": "Bioavailability, effect of food", "setting": "presence of food", "result": "slightly enhanced"}, {"measurement": "extent and rate of absorption, gender difference", "setting": "single dose", "result": "greater in women than men"}]}, {"compound": "CNCCCC1c2ccccc2C=Cc2ccccc21", "note": "[Protriptyline]", "values": [{"measurement": "effect in individuals with sleep apnea", "setting": "[2]", "result": "variable results and frequent and significant side effects"}]}, {"compound": "NCC[C@@H](Oc1ccc(C(F)(F)F)cc1)c1ccccc1", "note": "[R-norfluoxetine]", "values": [{"measurement": "inhibition of serotonin uptake, activity relative to fluoxetine", "setting": "[3]", "result": "significantly less potent than the parent drug"}]}, {"compound": "NCC[C@H](Oc1ccc(C(F)(F)F)cc1)c1ccccc1", "note": "[S-norfluoxetine]", "values": [{"measurement": "inhibition of serotonin uptake, activity relative to fluoxetine", "setting": "[3]", "result": "essentially equivalent to R- or S-fluoxetine"}]}, {"compound": "CC(=O)Nc1nnc(S(N)(=O)=O)s1", "note": "[acetazolamide]", "values": [{"measurement": "effect in individuals with sleep apnea", "setting": "[2]", "result": "produced variable improvement in individuals with primary central apneas but caused an increase in obstructive apneas"}]}, {"compound": "Nc1ncnc2c1ncn2[C@@H]1O[C@H](CO)[C@@H](O)[C@H]1O", "note": "[adenosine]", "values": [{"measurement": "reduction of apnea", "setting": "[4]", "result": "somewhat effective in reducing apnea"}]}, {"compound": "CCN1CC(CCN2CCOCC2)C(c2ccccc2)(c2ccccc2)C1=O", "note": "(stereo not drawn) [doxapram]", "values": [{"measurement": "effect in individuals with sleep apnea", "setting": "[2]", "result": "decrease the length of apneas but did not alter the average arterial oxygen saturation"}]}, {"compound": "CNCCC(Oc1ccc(C(F)(F)F)cc1)c1ccccc1", "note": "(stereo not drawn) [fluoxetine]", "values": [{"measurement": "number of eye movements, EOG and EMG activity on treatment", "setting": "[5]; REM, stages 1, 2, and slow-wave sleep", "result": "significantly increases the number of eye movements"}, {"measurement": "patients with increased EOG and EMG activity on treatment in every sleep stage", "setting": "[5]; in vivo", "result": "Thirty-four"}, {"measurement": "peak plasma concentrations", "setting": "[6]", "result": "15 to 55", "unit": "ng/mL"}, {"measurement": "time of peak plasma concentrations", "setting": "[6]", "result": "6 to 8", "unit": "h"}, {"measurement": "effects on nocturnal sleep", "setting": "[7]", "result": "reduced the total sleep time and the duration of rapid eye movement (REM) sleep and increased awake activity and stage 1 (drowsy) sleep during the night"}, {"measurement": "individuals with OSAS with measurable benefits", "setting": "[2]; initial evidence", "result": "approximately 50%"}]}, {"compound": "CC1(C)Cc2cc(Cl)cc(C(=O)NC3CC4CCC(C3)[N+]4(C)C)c2O1", "note": "(stereo not drawn) [methylated zatosetron]", "values": [{"measurement": "ability to cross the blood-brain barrier", "setting": "[8]", "result": "lack the ability to cross the blood-brain barrier"}]}, {"compound": "C=CCN1CC[C@]23c4c5ccc(O)c4O[C@H]2C(=O)CC[C@@]3(O)[C@H]1C5", "note": "[naloxone]", "values": [{"measurement": "effect in individuals with sleep apnea", "setting": "[2]", "result": "only slightly helpful"}]}, {"compound": "Cn1c(=O)c2[nH]cnc2n(C)c1=O", "note": "[theophylline]", "values": [{"measurement": "effect in individuals with sleep apnea", "setting": "[2]", "result": "may benefit patients with central apnea but appears to be of no use in adult patients with obstructive apnea"}]}, {"compound": "medroxyprogesterone", "values": [{"measurement": "effect in individuals with sleep apnea", "setting": "[2]", "result": "no consistent benefit in OSAS"}]}]}
